Source: PubChem BioAssay AID330 (DTP/NCI, 2004)
“And” between values parts separate entries of the source, which are not always exact repeats. Identical values can stand only once. Toxic doses and inconclusive results are not listed. The calls were made as follows: active = survival T/C of 150% or more; inactive = T/C below 125% in these data.

System: P388 leukemia ip, CD2F1 mice, survival T/C
Experiment: NCI In Vivo Anticancer Drug Screen. Data for tumor model P388 Leukemia (intraperitoneal) in CD2F1 (CDF1) mice
Settings: endpoint: median survival time, higher = longer survival
Outline: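 Mice carrying the transplanted tumor received test compound or vehicle. Survival was recorded in each group, and the value is the treated-group measurement divided by that of the vehicle-treated control group.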

[1] = dose: 25.0 mg/kg/injection, schedule: Q01DX005 (ip), vehicle: Klucel (hydroxypropylcellulose) (HPC)
[2] = dose: 50.0 mg/kg/injection, schedule: Q01DX005 (ip), vehicle: Klucel (hydroxypropylcellulose) (HPC)
[3] = dose: 100.0 mg/kg/injection, schedule: Q01DX005 (ip), vehicle: Klucel (hydroxypropylcellulose) (HPC)
[4] = dose: 200.0 mg/kg/injection, schedule: Q01DX005 (ip), vehicle: Klucel (hydroxypropylcellulose) (HPC)
[5] = dose: 12.5 mg/kg/injection, schedule: Q01DX005 (ip), vehicle: Klucel (hydroxypropylcellulose) (HPC)
[6] = dose: 50.0 mg/kg/injection, schedule: Q01DX005 (ip), vehicle: saline with Tween-80
[7] = dose: 100.0 mg/kg/injection, schedule: Q01DX005 (ip), vehicle: saline with Tween-80
[8] = dose: 200.0 mg/kg/injection, schedule: Q01DX005 (ip), vehicle: saline with Tween-80
[9] = dose: 60.0 mg/kg/injection, schedule: Q01DX005 (ip), vehicle: saline with Tween-80
[10] = dose: 120.0 mg/kg/injection, schedule: Q01DX005 (ip), vehicle: saline with Tween-80
[11] = dose: 240.0 mg/kg/injection, schedule: Q01DX005 (ip), vehicle: saline with Tween-80
[12] = dose: 50.0 mg/kg/injection, schedule: Q01DX009 (ip), vehicle: saline with Tween-80
[13] = dose: 100.0 mg/kg/injection, schedule: Q01DX009 (ip), vehicle: saline with Tween-80
[14] = dose: 50.0 mg/kg/injection, schedule: Q01DX009 (ip), vehicle: saline
[15] = dose: 100.0 mg/kg/injection, schedule: Q01DX009 (ip), vehicle: saline
[16] = dose: 200.0 mg/kg/injection, schedule: Q01DX009 (ip), vehicle: saline

Measured: T/C

COc1c(/C=C/C=O)cc2c(c1OC)OCO2
inactive: [1] 97 % of control | [2] 97 % of control | [3] 104 % of control | [4] 100 % of control

O=c1[nH]c2ccccc2c(=O)n1-c1cccs1
inactive: dose: 100.0 mg/kg/injection, schedule: Q04DX002 (ip), vehicle: saline 105 % of control | dose: 200.0 mg/kg/injection, schedule: Q04DX002 (ip), vehicle: saline 105 % of control | dose: 400.0 mg/kg/injection, schedule: Q04DX002 (ip), vehicle: saline 99 % of control

c1cnc2ccc3ncccc3c2c1
inactive: [5] 99 % of control | [1] 96 % of control | [2] 100 % of control and 97 % of control

CCOP(=O)(Cc1cc(=O)oc2cc(OC)ccc12)OCC
inactive: dose: 100.0 mg/kg/injection, schedule: Q01DX001 (ip), vehicle: saline 101 % of control | dose: 200.0 mg/kg/injection, schedule: Q01DX001 (ip), vehicle: saline 100 % of control

O=C1c2cc([N+](=O)[O-])cc3cc([N+](=O)[O-])cc(c23)C(=O)N1CCNCCNCCNCCN1C(=O)c2cc([N+](=O)[O-])cc3cc([N+](=O)[O-])cc(c23)C1=O
inactive: dose: 12.5 mg/kg/injection, schedule: Q04DX002 (ip), vehicle: saline with Tween-80 112 % of control | dose: 25.0 mg/kg/injection, schedule: Q04DX002 (ip), vehicle: saline with Tween-80 121 % of control | dose: 50.0 mg/kg/injection, schedule: Q04DX002 (ip), vehicle: saline with Tween-80 122 % of control

CC(C)(C)OC(=O)NC(Cc1ccc(OCc2c(Cl)cccc2Cl)cc1)C(=O)O (configuration not stated)
inactive: [6] 104 % of control | [7] 100 % of control | [8] 100 % of control

O=C(/C=C/C1CCCC(O)C1)C1CCCCC1 (configuration not stated)
inactive: [6] 91 % of control | [7] 89 % of control | [8] 91 % of control

CCN=C(Cl)N(C)c1ccccc1
inactive: dose: 50.0 mg/kg/injection, schedule: Q01DX009 (ip), vehicle: Klucel (hydroxypropylcellulose) (HPC) 100 % of control | dose: 100.0 mg/kg/injection, schedule: Q01DX009 (ip), vehicle: Klucel (hydroxypropylcellulose) (HPC) 95 % of control

CNC(=O)c1ccc(OC)cc1C1(O)c2ccccc2CCc2ccccc21
inactive: [2] 92 % of control | [3] 92 % of control | [4] 89 % of control

c1ccc(Cc2[nH]nc(-c3n[nH]c(Cc4ccccc4)c3-c3ccccc3)c2-c2ccccc2)cc1
inactive: [9] 101 % of control | [10] 103 % of control | [11] 102 % of control

CC1(C)CC2C3=CCC4C5(C)CCC(O)C(C)(C)C5CCC4(C)C3(C)CC(O)C2(CO)C(O)C1O (configuration not stated)
inactive: dose: 3.5 mg/kg/injection, schedule: Q01DX005 (ip), vehicle: Klucel (hydroxypropylcellulose) (HPC) 99 % of control | dose: 7.0 mg/kg/injection, schedule: Q01DX005 (ip), vehicle: Klucel (hydroxypropylcellulose) (HPC) 99 % of control | dose: 14.0 mg/kg/injection, schedule: Q01DX005 (ip), vehicle: Klucel (hydroxypropylcellulose) (HPC) 95 % of control | dose: 28.0 mg/kg/injection, schedule: Q01DX005 (ip), vehicle: Klucel (hydroxypropylcellulose) (HPC) 96 % of control

O=C(NCCCCNC(=O)C12CC3CC(CC(C3)C1)C2)C12CC3CC(CC(C3)C1)C2
inactive: [2] 90 % of control | [3] 90 % of control | [4] 86 % of control

CCN(CC)CCNC(=O)c1nn(C)c(=O)[nH]c1=O
inactive: [2] 108 % of control | [3] 119 % of control | [4] 99 % of control

CCCOC(=O)c1nc(N(CC2CCCCC2)C(=O)NC)sc1/N=C/c1ccccc1
inactive: dose: 25.0 mg/kg/injection, schedule: Q01DX009 (ip), vehicle: saline with Tween-80 98 % of control | [12] 94 % of control | [13] 87 % of control

C[CH2][Sn]([CH2]C)[O][Sn]([Cl])([CH2]C)[CH2]C
inactive: dose: 3.12 mg/kg/injection, schedule: Q01DX005 (ip), vehicle: Klucel (hydroxypropylcellulose) (HPC) 116 % of control | dose: 6.25 mg/kg/injection, schedule: Q01DX005 (ip), vehicle: Klucel (hydroxypropylcellulose) (HPC) 118 % of control and 121 % of control | [5] 104 % of control and 121 % of control | [1] 120 % of control

Nc1cccc2[nH]c(=O)c3ccccc3c12
inactive: [9] 93 % of control | [10] 105 % of control | [11] 106 % of control

c1ccc([P+](COC[P+](c2ccccc2)(c2ccccc2)c2ccccc2)(c2ccccc2)c2ccccc2)cc1
inactive: dose: 6.25 mg/kg/injection, schedule: Q01DX009 (ip), vehicle: Klucel (hydroxypropylcellulose) (HPC) 92 % of control | dose: 12.5 mg/kg/injection, schedule: Q01DX009 (ip), vehicle: Klucel (hydroxypropylcellulose) (HPC) 94 % of control

Oc1ccc(/C=C/c2cc(O)cc3c2C(c2cc(O)cc(O)c2)C(c2ccc(O)c(O)c2)O3)cc1 (configuration not stated)
inactive: dose: 7.5 mg/kg/injection, schedule: Q01DX001 (ip), vehicle: Klucel + Tween-80 94 % of control | dose: 15.0 mg/kg/injection, schedule: Q01DX001 (ip), vehicle: Klucel + Tween-80 94 % of control | dose: 30.0 mg/kg/injection, schedule: Q01DX001 (ip), vehicle: Klucel + Tween-80 103 % of control

CC(C)SCNc1ncnc2c1ncn2C1OC(CO)C(O)C1O (configuration not stated)
inactive: dose: 100.0 mg/kg/injection, schedule: Q04DX002 (ip), vehicle: saline with Tween-80 98 % of control

FC(F)(F)c1cccc(N=Cc2ccc(C=Nc3cccc(C(F)(F)F)c3)cc2)c1
inactive: [14] 99 % of control | [15] 99 % of control | [16] 97 % of control

Cc1ccc(S(=O)(=O)NCCN(CCN(CCNS(=O)(=O)c2ccc(C)cc2)S(=O)(=O)c2ccc(C)cc2)S(=O)(=O)c2ccc(C)cc2)cc1
inactive: [12] 101 % of control | [13] 92 % of control | dose: 200.0 mg/kg/injection, schedule: Q01DX009 (ip), vehicle: saline with Tween-80 90 % of control

O=C(/C=C/c1c(-c2ccccc2)[nH]c2ccccc12)c1ccccc1O
inactive: dose: 7.5 mg/kg/injection, schedule: Q01DX005 (ip), vehicle: saline with Tween-80 106 % of control | dose: 15.0 mg/kg/injection, schedule: Q01DX005 (ip), vehicle: saline with Tween-80 92 % of control | dose: 30.0 mg/kg/injection, schedule: Q01DX005 (ip), vehicle: saline with Tween-80 90 % of control | [11] 88 % of control

CCO/C(C)=N/n1c(C)nc2[nH]ncc2c1=O
inactive: [9] 99 % of control | [10] 106 % of control | [11] 106 % of control

CC1(C)NCCc2c1[nH]c1ccccc21
inactive: dose: 50.0 mg/kg/injection, schedule: Q04DX002 (ip), vehicle: suspension in saline 100 % of control | dose: 100.0 mg/kg/injection, schedule: Q04DX002 (ip), vehicle: suspension in saline 100 % of control | dose: 200.0 mg/kg/injection, schedule: Q04DX002 (ip), vehicle: suspension in saline 100 % of control

c1ccc(-c2nnc3c4[nH]c5ccccc5c4cnn23)cc1
inactive: dose: 100.0 mg/kg/injection, schedule: Q01DX001 (ip), vehicle: Klucel (hydroxypropylcellulose) (HPC) 105 % of control | dose: 200.0 mg/kg/injection, schedule: Q01DX001 (ip), vehicle: Klucel (hydroxypropylcellulose) (HPC) 105 % of control | dose: 400.0 mg/kg/injection, schedule: Q01DX001 (ip), vehicle: Klucel (hydroxypropylcellulose) (HPC) 99 % of control

C/C(=C\c1ccc(OCC(=O)O)c2ccccc12)[N+](=O)[O-]
inactive: dose: 25.0 mg/kg/injection, schedule: Q01DX001 (ip), vehicle: saline with Tween-80 110 % of control | dose: 50.0 mg/kg/injection, schedule: Q01DX001 (ip), vehicle: saline with Tween-80 111 % of control | dose: 100.0 mg/kg/injection, schedule: Q01DX001 (ip), vehicle: saline with Tween-80 101 % of control

NS(=O)(=O)c1ccc(N=Cc2cnc3ccccc3c2)cc1
inactive: dose: 2.5 mg/kg/injection, schedule: Q01DX009 (ip), vehicle: saline 100 % of control | dose: 5.0 mg/kg/injection, schedule: Q01DX009 (ip), vehicle: saline 97 % of control | dose: 10.0 mg/kg/injection, schedule: Q01DX009 (ip), vehicle: saline 100 % of control and 91 % of control | dose: 20.0 mg/kg/injection, schedule: Q01DX009 (ip), vehicle: saline 93 % of control

Cc1ccc(CCNC(=O)c2c3nc4c(C(=O)NCCc5ccc(C)cc5)ccc(Br)c4oc-3c(Br)c(=O)c2N)cc1
inactive: [6] 93 % of control | [7] 86 % of control | [8] 106 % of control

COCC(O)C(NC(=O)CCl)C(=O)O (configuration not stated)
inactive: [14] 110 % of control and 97 % of control | [15] 90 % of control and 98 % of control | [16] 95 % of control
